Measured values as given in patent publication US6117869A, “Compounds for and methods of inhibiting matrix metalloproteinases” (Warner-Lambert Company, priority 1999, dated 2000).

Key:
[1] = tested on: pig articular cartilage; details: cited from earlier work
[2] = tested on: bovine nasal cartilage; details: cited from earlier work
[3] = biological target: T1, MMP-3CD (Homo sapiens, UniProt P08254); assay: Thiopeptolide assay, stromelysin-1 catalytic domain (SCD); assay type: biochemical; details: 10 nM, pH 6.0, 100 μM thiopeptolide substrate
T1 construct: Stromelysin Catalytic Domain (SCD) at 10 nM; made in house; host or cells: Escherichia coli
Procedure: (§1) IC50 values were determined using a thiopeptolide substrate, Ac-Pro-Leu-Gly-thioester-Leu-Leu-Gly-OEt (Ye Q. Z., Johnson L. L., Hupe D. J., and Baragi V., "Purification and Characterization of the Human Stromelysin Catalytic Domain Expressed in Escherichia coli," Biochemistry,1992;31:11231-11235). MMP-1, MMP-7, and MMP-13 activity was assayed in a method similar to MMP-2 and MMP-3 (SCD and GCD). MMP-1 can be obtained from Washington University School of Medicine, St. Louis, Mo. MMP-7 can be obtained in accordance with the known procedure set forth by Ye Q. Z., Johnson L. L., and Baragi V., "Gene Syntheses and Expression in E. coli for PUMP, a Human Matrix Metalloproteinase," Biochem. and Biophys. Res. Comm., 1992;186:143-149. MMP13 can be obtained in accordance with the known procedure set forth by Freije J. M. P. et al., "Molecular Cloning and Expression of Collegenase-3, a Novel Human Matrix Metalloproteinase Produced by Breast Carcinomas," J. Bio. Chem., 1994;269:16766-16773.
(§2) Hydrolysis of the thiopeptolide substrate Ac-Pro-Leu-Gly-thioester-Leu-Leu-Gly-OEt (Bachem) is used as the primary screen to determine IC50 values for MMP inhibitors. A 100 μL reaction contains 1 mM 5,5'-dithiobis(2-nitrobenzoic acid) (DTNB), 100 μM substrate, 0.1% BRIJ® 35, PROTEIN GRADE®, Detergent, 10% solution, Sigma, St. Louis, Mo. [polyoxyethyleneglycol dodecyl ether; polyoxyethylene (23) lauryl ether], enzyme, and inhibitor in the appropriate reaction buffer. Activated full-length enzymes are assayed at 5 nM, Stromelysin Catalytic Domain (SCD) at 10 nM, and Gelatinase A Catalytic Domain (GaCD) at 1 nM. Inhibitors are screened from 100 μM to 1 nM. Full-length enzymes (MMP-1 and MMP-7) are assayed in 50 mM HEPES, 10 mM CaCl2, pH 7.0; SCD in 50 mM MES, 10 mM CaCl2, pH 6.0; and GaCD in 50 mM MOPS, 10 mM CaCl2, 10 μM ZnCl2, pH 7.0. The change in absorbance at 405 nm is monitored on a ThermoMax microplate reader at room temperature continuously for 20 minutes.

[4] = biological target: T2, MMP-1 (Homo sapiens, UniProt P03956); assay: Thiopeptolide assay, MMP-1; assay type: biochemical; details: full-length enzyme, 5 nM; pH 7.0; 100 μM thiopeptolide substrate
T2 construct: purchased Washington University School of Medicine, St. Louis, Mo
T2 sequence (P03956 100-469): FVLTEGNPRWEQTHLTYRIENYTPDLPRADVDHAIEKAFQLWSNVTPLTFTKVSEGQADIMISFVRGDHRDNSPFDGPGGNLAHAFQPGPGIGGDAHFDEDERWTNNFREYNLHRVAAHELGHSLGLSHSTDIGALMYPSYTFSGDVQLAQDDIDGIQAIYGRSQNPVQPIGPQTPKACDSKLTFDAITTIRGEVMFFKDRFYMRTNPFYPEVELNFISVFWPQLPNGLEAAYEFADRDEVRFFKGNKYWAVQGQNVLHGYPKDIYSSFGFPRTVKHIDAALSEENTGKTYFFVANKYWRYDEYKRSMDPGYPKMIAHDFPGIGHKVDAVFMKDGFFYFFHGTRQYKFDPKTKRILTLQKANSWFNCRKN
Procedure: as §1, §2

[5] = biological target: T3, MMP-7 (Homo sapiens, UniProt P09237); assay: Thiopeptolide assay, MMP-7; assay type: biochemical; details: full-length enzyme, 5 nM; pH 7.0; 100 μM thiopeptolide substrate
T3 construct: made in house; host or cells: E. coli
T3 sequence (P09237 95-267): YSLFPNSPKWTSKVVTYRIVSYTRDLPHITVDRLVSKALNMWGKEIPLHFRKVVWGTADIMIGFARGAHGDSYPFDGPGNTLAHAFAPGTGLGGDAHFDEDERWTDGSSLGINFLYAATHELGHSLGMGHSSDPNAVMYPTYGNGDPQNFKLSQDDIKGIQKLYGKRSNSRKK
Procedure: as §1, §2

[6] = biological target: MMP-9 (Homo sapiens, UniProt P14780); assay: Thiopeptolide assay, MMP-9; assay type: biochemical; details: thiopeptolide substrate
Procedure: [The source words this procedure for another target and reports this target under the same test.] as §1, §2

[7] = tested on: MMP-13CD; assay: Thiopeptolide assay, MMP-13CD; assay type: biochemical, Human; details: catalytic domain; thiopeptolide substrate
Procedure: as §1, §2

[8] = biological target: MMP-2CD; assay: Thiopeptolide assay, gelatinase A catalytic domain (GCD/GaCD); assay type: biochemical; details: 1 nM, pH 7.0, 100 μM thiopeptolide substrate
Procedure: as §1, §2

[9] = tested on: MMP-14CD; assay: Thiopeptolide assay, MMP-14CD; assay type: biochemical; details: catalytic domain; thiopeptolide substrate
Procedure: as §1, §2

[10] = tested on: human ovarian carcinoma xenografts; details: mice bearing human ovarian carcinoma xenografts; cited from earlier work

T1 sequence (P08254 100-272 limits assumed): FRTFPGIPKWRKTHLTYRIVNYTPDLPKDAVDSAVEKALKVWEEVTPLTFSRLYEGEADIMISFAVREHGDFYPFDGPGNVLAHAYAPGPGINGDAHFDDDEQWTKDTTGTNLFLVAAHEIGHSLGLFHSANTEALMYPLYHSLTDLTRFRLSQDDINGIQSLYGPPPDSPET
Chain of MMP-9 (P14780 94-707): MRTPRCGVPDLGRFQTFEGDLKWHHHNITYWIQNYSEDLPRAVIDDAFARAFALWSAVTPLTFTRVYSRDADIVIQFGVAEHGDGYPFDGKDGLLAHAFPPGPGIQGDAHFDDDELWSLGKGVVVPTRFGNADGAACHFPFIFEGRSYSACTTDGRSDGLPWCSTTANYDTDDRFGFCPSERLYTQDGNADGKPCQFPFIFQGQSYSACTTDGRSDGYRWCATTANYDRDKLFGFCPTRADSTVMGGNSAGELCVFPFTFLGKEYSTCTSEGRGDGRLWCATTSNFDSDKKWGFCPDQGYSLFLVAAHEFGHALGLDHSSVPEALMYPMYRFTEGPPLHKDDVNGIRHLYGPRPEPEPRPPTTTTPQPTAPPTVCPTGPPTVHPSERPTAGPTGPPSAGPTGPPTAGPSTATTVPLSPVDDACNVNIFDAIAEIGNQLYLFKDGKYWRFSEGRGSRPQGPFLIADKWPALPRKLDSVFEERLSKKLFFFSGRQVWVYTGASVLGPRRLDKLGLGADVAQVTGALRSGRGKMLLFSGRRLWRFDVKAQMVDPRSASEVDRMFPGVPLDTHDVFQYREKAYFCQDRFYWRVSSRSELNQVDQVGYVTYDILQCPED

Row | Compound | IC50 [3] [µM] | IC50 [4] [µM] | IC50 [5] [µM] | IC50 [6] [µM] | IC50 [7] [µM] | IC50 [8] [µM] | IC50 [9] [µM] | formation of collagen and proteoglycan fragments [1] | formation of collagen and proteoglycan fragments [2] | survival [10] | tumor burden [10]
1 | TIMP-1: tissue inhibitors of metalloproteinases | – | – | – | – | – | – | – | prevented the formation of collagen fragments, but not proteoglycan fragments | prevented the formation of collagen fragments, but not proteoglycan fragments | – | –
2 | CC(C)[C@H](NS(=O)(=O)c1ccc2c(c1)Sc1ccccc1S2)C(=O)O [Example 1, (S)-3-Methyl-2-((thianthren-2-ylsulfonyl)amino)butanoic acid] | 6.9 | > 100 | 27.6 | > 100 | > 100 | 15.4 | 40 | – | – | – | –
3 | O=C(O)[C@H](CO)NS(=O)(=O)c1ccc2c(c1)Sc1ccccc1O2 [Example 5, (S)-3-Hydroxy-2-(phenoxathiine-2-sulfonylamino)-propionic acid] | 0.18 | > 100 | 23 | 82 | 1.8 | 0.069 | 0.39 | – | – | – | –
4 | O=C(O)[C@H](CSC(c1ccccc1)(c1ccccc1)c1ccccc1)NS(=O)(=O)c1ccc2c(c1)Sc1ccccc1O2 [Example 13, (R)-2-(Phenoxathiine-2-sulfonylamino)-3-tritylsulfanyl-propionic acid] | 4.65 | > 100 | 66 | > 100 | 36 | 3.2 | 7.4 | – | – | – | –
5 | C[C@H](NS(=O)(=O)c1ccc2c(c1)Sc1ccccc1O2)C(=O)O [Example 9, (S)-2-(Phenoxathiine-2-sulfonylamino)-propionic acid] | 0.295 | 76 | 19 | 23 | 5.25 | 0.033 | 0.19 | – | – | – | –
6 | CNC(=O)[C@H](Cc1ccccc1)NC(=O)[C@H](CC(C)C)[C@H](CSc1cccs1)C(=O)NO [BB-94] | – | – | – | – | – | – | – | – | – | prolonged the survival | decreased the tumor burden
7 | O=C(O)[C@H](CO)NS(=O)(=O)c1ccc2c(c1)Cc1ccccc1O2 [Example 6, (S)-3-Hydroxy-2-(9H-xanthene-2-sulfonylamino)-propionic acid] | 0.44 | > 100 | 34 | > 100 | 4.3 | 0.65 | 4.1 | – | – | – | –
8 | O=C(O)[C@H](CCc1ccccc1)NS(=O)(=O)c1ccc2c(c1)S(=O)(=O)c1ccccc1O2 [Example 7, (S)-2-(10,10-Dioxo-10H-10λ^6-phenoxathiine-2-sulfonylamino)-4-phenyl-butyric acid] | 3.75 | > 100 | 24 | > 100 | 73 | 2.3 | 3.7 | – | – | – | –
9 | O=C(O)[C@H](Cc1ccccc1)NS(=O)(=O)c1ccc2c(c1)Sc1ccccc1O2 [Example 12, (S)-2-(Phenoxathiine-2-sulfonylamino)-3-phenyl-propionic acid] | 0.35 | > 100 | 91 | > 100 | 8.7 | 0.17 | 0.5 | – | – | – | –
10 | O=C(O)[C@H](Cc1c[nH]c2ccccc12)NS(=O)(=O)c1ccc2c(c1)Sc1ccccc1O2 [Example 15, (S)-3-(1H-Indol-3-yl)-2-(phenoxathiine-2-sulfonylamino)-propionic acid] | 0.86 | > 100 | 54 | > 100 | 16 | 0.91 | 3.8 | – | – | – | –
11 | NC(=O)C[C@H](NS(=O)(=O)c1ccc2c(c1)Sc1ccccc1O2)C(=O)O [Example 16, (S)-2-(Phenoxathiine-2-sulfonylamino)-succinamic acid] | 0.41 | > 100 | 14 | 53 | 4.4 | 0.113 | 1.55 | – | – | – | –
12 | O=C(O)[C@@H](NS(=O)(=O)c1ccc2c(c1)Sc1ccccc1O2)c1ccccc1 [Example 17, (S)-(Phenoxathiine-2-sulfonylamino)-phenyl-acetic acid] | 2 | > 100 | > 100 | > 100 | 12 | 0.15 | 0.94 | – | – | – | –

Continued, in another order:

Row | IC50 [3] [µM] | IC50 [4] [µM] | IC50 [5] [µM] | IC50 [6] [µM] | IC50 [7] [µM] | IC50 [8] [µM] | IC50 [9] [µM] | Compound | formation of collagen and proteoglycan fragments [1] | formation of collagen and proteoglycan fragments [2] | survival [10] | tumor burden [10]
13 | 0.165 | 72 | 9.15 | 38 | 4.1 | 0.0585 | 0.285 | C[S+]([O-])CC[C@H](NS(=O)(=O)c1ccc2c(c1)Sc1ccccc1O2)C(=O)O (stereo partly drawn) [Example 10, (S)-4-Methanesulfinyl-2-(phenoxathiine-2-sulfonylamino)-butyric acid] | – | – | – | –
14 | 0.0155 | 6.25 | 19 | 12 | 0.27 | 0.027 | 0.155 | CC(C)[C@@H](NS(=O)(=O)c1ccc2c(c1)Sc1ccccc1O2)C(=O)O [Example 8, (R)-3-Methyl-2-(phenoxathiine-2-sulfonylamino)-butyric acid] | – | – | – | –
15 | 0.053 | 39 | 6.7 | 19 | – | – | – | CC(C)[C@H](NS(=O)(=O)c1ccc2c(c1)Sc1ccccc1O2)C(=O)O [Example 4, (S)-3-Methyl-2-(phenoxathiine-2-sulfonylamino)-butyric acid] | – | – | – | –
16 | 0.0625 | 55 | 8.7 | 18 | 3.9 | 0.0235 | 0.3 | CC(C)C[C@H](NS(=O)(=O)c1ccc2c(c1)Sc1ccccc1O2)C(=O)O [Example 11, (S)-4-Methyl-2-(phenoxathiine-2-sulfonylamino)-pentanoic acid] | – | – | – | –
17 | 0.068 | > 100 | 3.2 | > 100 | 0.5 | 0.2 | 1 | O=C(O)[C@H](CCc1ccccc1)NS(=O)(=O)c1ccc2c(c1)Cc1ccccc1O2 [Example 3, (S)-4-Phenyl-2-(9H-xanthene-2-sulfonylamino)-butyric acid] | – | – | – | –
18 | 0.054 | > 100 | 7.9 | 16.6 | 1.39 | 0.033 | 0.092 | O=C(O)[C@H](CCc1ccccc1)NS(=O)(=O)c1ccc2c(c1)Sc1ccccc1O2 [Example 2, (S)-2-(Phenoxathiine-2-sulfonylamino)-4-phenyl-butyric acid] | – | – | – | –
19 | 0.12 | 87 | 17 | 18 | 2.3 | 0.09 | 0.2 | O=C(O)[C@H](Cc1ccc(O)cc1)NS(=O)(=O)c1ccc2c(c1)Sc1ccccc1O2 [Example 14, (S)-3-(4-Hydroxy-phenyl)-2-(phenoxathiine-2-sulfonylamino)-propionic acid] | – | – | – | –
